Reference: US8853216B2, “Hydroxylated pyrimidyl cyclopentane as AKT protein kinase inhibitor” (Array BioPharma, Inc., priority 2008, dated 2014)

Biological target: full-length human recombinant active AKT-1 (Homo sapiens, UniProt P31749)
Test: AKT-1 Kinase Assay (IMAP fluorescence polarization)
Type: biochemical
Conditions: phosphorylation of fluorescein-labeled Crosstide peptide by AKT-1, 60 minute incubation at ambient temperature
Excerpt: The activity of the compound described in the present invention may be determined by the following kinase assay, which measures the phosphorylation of a fluorescently-labeled peptide by full-length human recombinant active AKT-1 by fluorescent polarization using a commercially available IMAP kit.
The assay materials are obtained from an IMAP AKT Assay Bulk Kit, product #R8059, from Molecular Devices, Sunnyvale, Calif. The kit materials include an IMAP Reaction Buffer (5×). The diluted 1×IMAP Reaction Buffer contained 10 mM Tris-HCl, pH 7.2, 10 mM MgCl2, 0.1% BSA, 0.05% NaN3. DTT is routinely added to a final concentration of 1 mM immediately prior to use. Also included is IMAP Binding Buffer (5×), and IMAP Binding Reagent. The Binding Solution is prepared as a 1:400 dilution of IMAP Binding Reagent into 1×IMAP Binding Buffer.
The fluorescein-labeled AKT Substrate (Crosstide) has the sequence (Fl)-GRPRTSSFAEG. A stock solution of 20 μM is made up in 1×IMAP Reaction Buffer. […]
The assay is initiated by the addition of 2.5-μL aliquots of a solution containing 200 nM of fluorescently-labeled peptide substrate and 4 nM AKT-1. […] The reaction is then quenched by the addition of 15 μL of Binding Solution, centrifuged again and incubated for an additional 30 minutes at ambient temperature prior to reading on a Victor 1420 Multilabel HTS Counter configured to measure fluorescence polarization.

Sequence of full-length human recombinant active AKT-1 (P31749 whole entry): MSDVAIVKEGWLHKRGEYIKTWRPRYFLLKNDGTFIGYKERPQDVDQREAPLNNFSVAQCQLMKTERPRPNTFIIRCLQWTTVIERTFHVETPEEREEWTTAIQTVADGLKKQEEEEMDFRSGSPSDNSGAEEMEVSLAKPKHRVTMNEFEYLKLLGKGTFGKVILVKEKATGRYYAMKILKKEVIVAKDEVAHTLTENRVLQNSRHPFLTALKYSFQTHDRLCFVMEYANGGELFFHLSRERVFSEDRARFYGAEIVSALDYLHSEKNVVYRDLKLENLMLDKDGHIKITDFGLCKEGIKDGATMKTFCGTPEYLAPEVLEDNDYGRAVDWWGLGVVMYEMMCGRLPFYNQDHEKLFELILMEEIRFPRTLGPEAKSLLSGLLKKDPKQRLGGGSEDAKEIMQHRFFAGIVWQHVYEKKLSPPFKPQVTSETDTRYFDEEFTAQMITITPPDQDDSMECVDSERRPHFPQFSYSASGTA

**Q.** Which IC50 does the source give for CO[C@H]1CC[C@H](NC[C@@H](C(=O)N2CCN(c3ncnc4c3[C@H](C)C[C@H]4O)CC2)c2ccc(Cl)c(F)c2)CC1 [Example 1, (S)-2-(4-chloro-3-fluorophenyl)-1-(4-((5R,7R)-7-hydroxy-5-methyl-6,7-dihydro-5H-cyclopenta[d]pyrimidin-4-yl)piperazin-1-yl)-3-((1r,4S)-4-methoxycyclohexylamino)propan-1-one] here?
**A.** < 500 nM
